The text below walks through data of ChEMBL document CHEMBL5385887, “Discovery of Sibiriline derivatives as novel receptor-interacting protein kinase 1 inhibitors” (Eur J Med Chem, 2023).

Molecules are shown by their SMILES. The source made the active and inactive calls. The rule behind the calls is not given here.

Series [1] concerns L929. Description: Anti-necroptosis activity against TNFalpha/z-VAD-fmk-induced mouse L929 cell necroptosis model assessed as cell viability pretreated with compound for 1 hr followed by treated with TZ for 6 hrs. The format is functional, cell-based.
Series [2] concerns the target T1, Receptor-interacting serine/threonine-protein kinase 1 (Homo sapiens, UniProt Q13546).
T1 sequence (Q13546 whole entry): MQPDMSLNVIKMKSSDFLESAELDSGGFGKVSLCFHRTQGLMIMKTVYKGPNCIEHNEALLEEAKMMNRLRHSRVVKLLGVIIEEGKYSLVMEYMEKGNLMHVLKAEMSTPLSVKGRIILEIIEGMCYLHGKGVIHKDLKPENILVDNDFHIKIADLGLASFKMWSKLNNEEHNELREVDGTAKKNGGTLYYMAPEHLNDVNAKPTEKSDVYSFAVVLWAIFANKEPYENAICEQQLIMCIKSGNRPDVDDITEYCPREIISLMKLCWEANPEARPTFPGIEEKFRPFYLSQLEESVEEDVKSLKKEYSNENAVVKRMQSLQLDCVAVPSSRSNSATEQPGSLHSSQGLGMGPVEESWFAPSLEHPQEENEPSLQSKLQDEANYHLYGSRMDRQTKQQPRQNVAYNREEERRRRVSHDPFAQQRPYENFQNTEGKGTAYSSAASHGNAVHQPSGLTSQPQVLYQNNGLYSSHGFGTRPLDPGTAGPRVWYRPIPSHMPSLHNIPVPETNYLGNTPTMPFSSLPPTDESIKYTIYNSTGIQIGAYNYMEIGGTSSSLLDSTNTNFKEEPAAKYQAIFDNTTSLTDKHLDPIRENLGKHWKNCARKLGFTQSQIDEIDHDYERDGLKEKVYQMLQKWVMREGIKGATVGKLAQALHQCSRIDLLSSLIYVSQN
Description: Inhibition of RIPK1 (unknown origin) using MBP substrate incubated for 2 hrs by ADP-Glo kinase function assay.

Series [3] in a line: Cytotoxicity against mouse L929 cells by CCK-8 assay. It counts as toxicity, cell-based. (In general: Tetrazolium assays rely on reduction of a dye to a coloured formazan, in cell work by metabolically active cells.)
Series [4] deals with L929. Description: Anti-necroptosis activity against TNFalpha/z-VAD-fmk-induced mouse L929 cell necroptosis model assessed as prevention of necroptosis pretreated with compound for 1 hr followed by treated with TZ for 6 hrs by Hoechst 33342/PI staining based flow cytometric analysis. It counts as functional. Particulars: dose 10-250 nmol/L, time 7.0 hrs. (A flow cytometer gives signals particle by particle.)

The subject of series [5] is L929. Description: Anti-necroptosis activity against TNFalpha/z-VAD-fmk-induced mouse L929 cell necroptosis model assessed as increase in viable cells pretreated with compound for 1 hr followed by treated with TZ for 6 hrs by Hoechst 33342/PI staining based flow cytometric analysis. The format is functional. The following applies: time 7.0 hrs.
The subject of series [6] is HT-29. Description: Anti-necroptosis activity against TSZ-induced human HT-29 cell necroptosis model assessed as cell viability pretreated with compound for 1 hr followed by treated with TSZ for 12 hrs. It counts as functional, cell-based. The following applies: dose 0.039-10 µM, time 13.0 hrs.
For a further series, the system named is U-937. Description: Anti-necroptosis activity against TSZ-induced human U937 cell necroptosis model assessed as cell viability pretreated with compound for 1 hr followed by treated with TSZ for 12 hrs. The format is functional, cell-based. The following applies: dose 0.039-10 µM, time 13.0 hrs.
Series [7] has as its system HT-29. Description: Anti-necroptosis activity against TS-induced human HT-29 cell necroptosis model assessed as cell viability at 0.039 to 10 uM pretreated with compound for 1 hr followed by treated with TS for 12 hrs. The format is functional, cell-based. Particulars: dose 0.039-10 µM.
In series [8] the target is T2, Receptor-interacting serine/threonine-protein kinase 1 (Mus musculus) (UniProt Q60855).
T2 sequence (whole entry): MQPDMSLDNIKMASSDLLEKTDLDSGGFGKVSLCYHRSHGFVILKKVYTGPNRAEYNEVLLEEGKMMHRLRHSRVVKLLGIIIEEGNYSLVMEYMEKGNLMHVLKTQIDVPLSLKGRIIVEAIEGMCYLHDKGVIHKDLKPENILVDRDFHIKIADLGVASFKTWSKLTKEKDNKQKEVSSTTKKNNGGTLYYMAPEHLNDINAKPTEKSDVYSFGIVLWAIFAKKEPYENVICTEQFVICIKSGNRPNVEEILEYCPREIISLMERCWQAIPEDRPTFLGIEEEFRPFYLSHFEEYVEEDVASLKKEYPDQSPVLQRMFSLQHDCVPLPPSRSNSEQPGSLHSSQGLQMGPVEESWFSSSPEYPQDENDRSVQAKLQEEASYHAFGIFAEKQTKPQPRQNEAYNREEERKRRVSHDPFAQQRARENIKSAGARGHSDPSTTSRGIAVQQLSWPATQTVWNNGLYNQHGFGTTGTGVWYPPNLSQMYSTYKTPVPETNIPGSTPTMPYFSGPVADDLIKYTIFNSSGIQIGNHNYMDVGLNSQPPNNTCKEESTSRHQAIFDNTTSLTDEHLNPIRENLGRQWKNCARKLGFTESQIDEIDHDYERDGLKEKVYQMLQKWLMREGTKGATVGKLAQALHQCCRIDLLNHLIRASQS
Description: Inhibition of RIPK1 phosphorylation in mouse L929 cells at 250 nM by Western blotting analysis. It counts as cell-based. The following applies: time 0.5-2.5 hrs, TDE = time-dependent effect. On the technique in general: A western blot detects proteins with antibodies after separation by electrophoresis.

Series [9] concerns the target Receptor-interacting serine/threonine-protein kinase 3 (Mus musculus) (UniProt Q9QZL0). Description: Inhibition of RIPK3 phosphorylation in mouse L929 cells at 250 nM by Western blotting analysis. The following applies: time 0.5-2.5 hrs, TDE = time-dependent effect. The format is cell-based.
The target in series [10] is T3, Mixed lineage kinase domain-like protein (Mus musculus) (UniProt Q9D2Y4).
T3 sequence (whole entry): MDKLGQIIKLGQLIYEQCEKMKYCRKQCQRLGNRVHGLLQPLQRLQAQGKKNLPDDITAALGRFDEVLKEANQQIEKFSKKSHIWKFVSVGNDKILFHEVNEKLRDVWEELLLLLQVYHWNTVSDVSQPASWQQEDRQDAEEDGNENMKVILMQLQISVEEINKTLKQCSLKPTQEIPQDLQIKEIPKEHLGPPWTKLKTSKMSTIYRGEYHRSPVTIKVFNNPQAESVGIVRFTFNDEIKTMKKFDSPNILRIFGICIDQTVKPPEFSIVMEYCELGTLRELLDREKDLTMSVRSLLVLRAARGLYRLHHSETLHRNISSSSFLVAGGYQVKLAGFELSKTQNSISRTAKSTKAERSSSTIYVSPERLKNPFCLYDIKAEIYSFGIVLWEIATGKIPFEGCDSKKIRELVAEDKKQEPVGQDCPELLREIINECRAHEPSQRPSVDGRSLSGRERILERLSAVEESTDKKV
Description: Inhibition of MLKL phosphorylation in mouse L929 cells at 250 nM incubated for 0.5 to 2.5 hrs by Western blotting analysis. The following applies: time 0.5-2.5 hrs. It counts as cell-based.

For series [11], the system named is Mus musculus. Description: In vivo anti-necroptotic effect in TNFalpha-induced systemic inflammatory response syndrome C57BL/6J mouse model assessed as reduction in hypothermic injury at 10 to 40 mg/kg, ip followed by compound treatment after 1 hr injected moue TNFalpha and measured continuously upto 72 hrs. The format is functional, organism-based. The following applies: dose 10-40 mg/kg, time 73.0 hrs.

Series [12] concerns Mus musculus. Description: In vivo anti-necroptotic effect in TNFalpha-induced systemic inflammatory response syndrome C57BL/6J mouse model assessed as reduction in hypothermic injury by measuring increase in survival at 25 mg/kg, ip followed by compound treatment after 1 hr injected moue TNFalpha and measured continuously upto 72 hrs. The format is functional. The following applies: time 73 hrs.

In series [13] the test system is Mus musculus. Description: In vivo anti-necroptotic effect in TNFalpha-induced systemic inflammatory response syndrome C57BL/6J mouse model assessed as reduction in hypothermic injury by measuring increase in survival at 40 mg/kg, ip followed by compound treatment after 1 hr injected moue TNFalpha and measured continuously upto 72 hrs. It counts as functional. Particulars: time 73 hrs.

The subject of series [14] is Mus musculus. Description: In vivo anti-necroptotic effect in TNFalpha-induced systemic inflammatory response syndrome C57BL/6J mouse model assessed as reduction in hypothermic injury by measuring increase in survival at 10 mg/kg, ip followed by compound treatment after 1 hr injected moue TNFalpha and measured continuously upto 72 hrs. It counts as functional. The following applies: time 73 hrs.

The EC50 is the concentration giving half of the maximal effect. One may read the IC50 as the concentration needed to halve the response being measured. Read a low IC50 as higher potency. By CC50 is commonly meant the concentration that lowers cell viability or growth by half. Read a low CC50 as harm at low concentration.

Sequence of Receptor-interacting serine/threonine-protein kinase 3 (Mus musculus) (Q9QZL0 whole entry, the tested form may be a part): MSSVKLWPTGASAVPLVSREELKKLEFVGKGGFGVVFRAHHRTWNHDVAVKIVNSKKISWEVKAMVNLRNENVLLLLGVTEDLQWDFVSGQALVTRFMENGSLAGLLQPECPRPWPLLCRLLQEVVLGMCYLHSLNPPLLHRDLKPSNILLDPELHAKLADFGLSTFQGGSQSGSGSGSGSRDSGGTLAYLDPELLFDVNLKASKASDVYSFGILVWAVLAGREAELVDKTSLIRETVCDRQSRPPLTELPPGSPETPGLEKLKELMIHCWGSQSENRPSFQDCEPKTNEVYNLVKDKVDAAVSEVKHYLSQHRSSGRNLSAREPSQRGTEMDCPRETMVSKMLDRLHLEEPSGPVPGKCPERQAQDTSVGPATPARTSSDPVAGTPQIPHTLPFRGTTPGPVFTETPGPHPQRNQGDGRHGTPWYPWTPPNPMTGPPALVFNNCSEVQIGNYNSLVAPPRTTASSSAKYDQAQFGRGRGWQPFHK

Turning to `O=C(c1ccc(-c2cc3cccnc3[nH]2)cc1)N1CCOCC1`, the EC50 in the series with L929 [1] is 56 nM. This compound also returned an IC50 in series [2] of 88 nM. Besides, the CC50 in series [3] is above 50000 nM. The Activity result with L929 [4], with HT-29 [6] and in the series with U-937 was “Dose-Dependent Effect” throughout. Besides, the outcome with L929 [5] and with Mus musculus [11] was Active. Also, the outcome in the series on HT-29 [7] was inactive. The inhibition result in [8] and in series [9] was “Tde” in each case. The inhibition result in [10] was “Active”. In the series with Mus musculus [12], the survival at 25 mg/kg was 100%. Moreover, in the series on Mus musculus [13], the survival at 40 mg/kg worked out at 100%. The survival at 10 mg/kg with Mus musculus [14] worked out at 75%.
